In US10577378B2, “EIF4A-inhibiting compounds and methods related thereto” (eFFECTOR Therapeutics, Inc., priority 2015, dated 2020):

Tested on: MDA-MB-231 human breast cancer cells
Experiment: Cell proliferation assay (CellTiter-Glo, 72 hours treatment)
Type: cell-based
Conditions: Homo sapiens; MDA-MB-231 cells, 72 hours at 37° C., CellTiter-Glo; read-out: MDA-MB-231 cell proliferation assay (IC50)
How it was run: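 IC50 categories: under 100 nM +++, 100–1000 nM ++, above 1000 nM +, derived by sigmoidal curve fitting of CellTiter-Glo luminescence. Cells plated at 2,500 per well, dosed the following day and exposed 72 h at 37 °C versus DMSO control.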

SMILES	IC50
CN(C)C(=O)[C@H]1[C@@H](O)[C@@]2(O)c3nn(C)c(Cl)c3O[C@@]2(c2ccc(Br)cc2)[C@@H]1c1ccccc1 (racemic) [37F, Rac-(4aR,5S,6R,7R,7aS)-4a-(4-bromophenyl)-3-chloro-7,7a-dihydroxy-N,N,2-trimethyl-5-phenyl-2,4a,5,6,7,7a-hexahydrocyclopenta[4,5]furo[3,2-c]pyrazole-6-carboxamide]	> 1000 nM
COc1nc(Cl)cc2c1[C@]1(O)[C@H](O)[C@H](CN(C)C)[C@@H](c3ccccc3)[C@]1(c1ccc(C(F)(F)F)cc1)O2 (racemic) [144F, Rac-(5aR,6S,7S,8R,8aS)-3-chloro-7-((dimethylamino)methyl)-1-methoxy-6-phenyl-5a-(4-(trifluoromethyl)phenyl)-5a,6,7,8-tetrahydro-8aH-cyclopenta[4,5]furo[3,2-c]pyridine-8,8a-diol]	< 100 nM
CS(=O)(=O)[C@H]1[C@@H](O)[C@@]2(O)c3ncc(Cl)cc3O[C@@]2(c2ccc(Br)cc2)[C@@H]1c1ccccc1 (racemic) [84F, Rac-(5aR,6S,7R,8S,8aS)-5a-(4-bromophenyl)-3-chloro-7-(methylsulfonyl)-6-phenyl-5a,6,7,8-tetrahydro-8aH-cyclopenta[4,5]furo[3,2-b]pyridine-8,8a-diol]	> 1000 nM
CN(C)C(=O)[C@H]1[C@@H](O)[C@@]2(O)c3ncc(Cl)cc3O[C@@]2(c2ccc(C(F)F)cc2)[C@@H]1c1ccccc1 (single isomer, unassigned) [16F]	100 to 1000 nM
COc1cncc2c1[C@]1(O)[C@H](O)[C@H](C(=O)N3CCCCC3)[C@@H](c3ccccc3)[C@]1(c1ccc(Br)cc1)O2 (racemic) [257F, Rac-((4bS,5R,6R,7S,7aR)-7a-(4-bromophenyl)-4b,5-dihydroxy-4-methoxy-7-phenyl-4b,6,7,7a-tetrahydro-5H-cyclopenta[4,5]furo[2,3-c]pyridin-6-yl)(piperidin-1-yl)methanone]	< 100 nM
COc1nc(Cl)cc2c1[C@]1(O)[C@H](O)[C@H](CN(C)CC(F)F)[C@@H](c3ccccc3)[C@]1(c1ccc(C#N)cc1)O2 (racemic) [208Fb, Rac-4-((5aR,6S,7S,8R,8aS)-3-chloro-7-(((2,2-difluoroethyl)(methyl)amino)methyl)-8,8a-dihydroxy-1-methoxy-6-phenyl-6,7,8,8a-tetrahydro-5aH-cyclopenta[4,5]furo[3,2-c]pyridin-5a-yl)benzonitrile]	100 to 1000 nM
COc1ccc([C@@]23Oc4cc(OC)ccc4[C@]2(N)[C@H](O)[C@H](C(=O)N(C)C)[C@H]3c2ccccc2)cc1 (racemic) [44F, Rac-(1R,2R,3S,3aR,8bS)-8b-amino-1-hydroxy-6-methoxy-3a-(4-methoxyphenyl)-N,N-dimethyl-3-phenyl-2,3,3a,8b-tetrahydro-1H-cyclopenta[b]benzofuran-2-carboxamide]	> 1000 nM
COc1cncc2c1[C@]1(O)[C@H](O)[C@H](C(=O)N3[C@@H]4COC[C@H]3C4)[C@@H](c3ccccc3)[C@]1(c1ccc(Br)cc1)O2 (racemic) [266F, Rac-((1R,5S)-3-oxa-6-azabicyclo[3.1.1]heptan-6-yl)((4bS,5R,6R,7S,7aR)-7a-(4-bromophenyl)-4b,5-dihydroxy-4-methoxy-7-phenyl-4b,6,7,7a-tetrahydro-5H-cyclopenta[4,5]furo[2,3-c]pyridin-6-yl)methanone]	< 100 nM
O[C@@H]1C(F)(F)[C@@H](c2ccccc2)[C@]2(c3ccc(Br)cc3)Oc3cc(Cl)cnc3[C@]12O (racemic) [91F, Rac-(5aR,6S,8S,8aS)-5a-(4-bromophenyl)-3-chloro-7,7-difluoro-6-phenyl-5a,6,7,8-tetrahydro-8aH-cyclopenta[4,5]furo[3,2-b]pyridine-8,8a-diol]	> 1000 nM
COc1cncc2c1[C@]1(O)[C@H](O)[C@H](CN3CCNCC3)[C@@H](c3ccccc3)[C@]1(c1ccc(C#N)cc1)O2 (single isomer, unassigned) [67F]	100 to 1000 nM
